Measurements as given in patent US20240336566A1, “CRYSTALLINE FORMS OF A COMPOUND FOR THE TARGETED DEGRADATION OF THE ANDROGEN RECEPTOR” (Arvinas Operations, Inc., priority 2023, published 2024).
Blank lines part the entries; values can stand above or below the compound they belong to.

Experiments:
Type in all cases: physicochemical
[1] = Primary crystallization screen: XRPD before and after drying at 40° C.; conditions: dried at 40° C. for approximately 18 h
Experimental: • 34×40 mg of Compound A was weighed into vials before the selected solvents were added to prepare slurries, where possible. See Table 29 for a list of solvent systems used and the volume of solvent used. • Stirrer bars were added to the vials, before the vials were sealed and temperature cycled with stirring between 5° C. and 40° C. The heating rate was 0.1° C./min and the samples were held at 5° C. and 40° C. for 2 hours. • After temperature cycling for 4 days, observations were made (see Table 29). Slurries were centrifuge filtered and the solids were analyzed by XRPD • The solids were dried at 40° C. for approximately 18 h before being re-analyzed by XRPD. • Saturated solutions were then split into 3 vials for the following experiments • Evaporation at ambient temperature • Cooling (5° C.). • Where no solids were obtained after 72 hours, the samples were moved to the freezer at −20° C. for further cooling. • Where no solids were obtained from further cooling, the samples were allowed to evaporate at ambient temperature. • Anti-solvent addition at ambient temperature. • Where no solids were obtained after 72 hours the samples were moved to the freezer at −20° C. to encourage crystallization. • Where no solids were obtained from cooling, the samples were allowed to evaporate at ambient temperature.

[2] = Co-crystal screen: XRPD post temperature cycling and post storage at 40° C./75% RH;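 for XRPD results, primary co-crystal screen post temperature cycling: value is the Compound A free base XRPD pattern number and 9 means a potential new one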; conditions: Compound A + 1.05 eq. co-former (= label)
[3] = 7-day stability assessment (appearance, HPLC, XRPD); conditions: for Reported Purity / Total impurities: HPLC
Experimental: The material was gently ground to release any agglomerates and loaded onto a multi-well plate with Kapton or Mylar polymer film to support the sample. […] Data were visualized and images generated using the HighScore Plus 4.7 desktop application (PANalytical, 2θ17).
They all remained white or off-white solids. • XRPD analysis determined the patterns were retained.

[4] = Thermodynamic solubility determination in buffers (HPLC); conditions: 25° C.
Text: No clear solubility advantage of the salts was noted over Compound A free base.

[5] = Primary salt screen: XRPD post temperature cycling/evaporation, post drying and post storage at 40° C./75% RH; conditions: post drying and 40° C./75% RH
Experimental: • 30 mg samples of Compound A were weighed out into 2 mL screw cap sample vials for 96 experiments. To these, 200 μL of the appropriate solvent system was added to dissolve the material or form a slurry. See Table 16 for the solvent systems selected for the primary salt screen.
• 1.05 eq. of solid counterions were weighed into six separate vials each and 1 molar stock solutions were prepared for liquid counterions in 5 mL of THF. See Table 17 for selected counterions and mass/volume needed for 1.05 eq. additions. • 100 μL of the appropriate solvent was added to the solid counterions.
The solution/slurry of counterion was added to the solution/slurry of the free base material.
• The samples were placed in an incubator shaker to temperature cycle between ambient and 40° C. over 4 hour cycles. • After ca. 72 hours of temperature cycling, observations were noted, see Table 19.
• Where slurries were obtained, the solids were isolated via centrifugation. Solids and gels were analyzed by XRPD.
Any samples that were clear solutions after temperature cycling were left to evaporate at ambient conditions. See Table 20 for observations made after evaporation. Solids obtained through evaporation were analyzed by XRPD.
• The samples obtained from temperature cycling were dried under vacuum at 40° C. for ca. 20 hours while the samples obtained from evaporation were dried under vacuum at 40° C. for ca. 4 hours. […]

[6] = 7 days at 40° C./75% RH (open vial)
[7] = 7 days at Ambient light (closed vial)
[8] = input material before storage (baseline of the stability assessment)
[9] = Buffer pH 1.2, cf concentration of free base, listed as Compound A Phosphate
[10] = Buffer pH 3.0, LOQ 0.00025 mg/mL
[11] = Buffer pH 4.0, LOQ 0.00025 mg/mL

XRPD form upon drying [1]: converted to Pattern 8
SMILES: COc1cc(O[C@H]2C(C)(C)[C@H](NC(=O)c3ccc(N4CCC(CN5CCN(c6ccc(C(=O)N[C@H]7CCC(=O)NC7=O)c(F)c6)CC5)CC4)cc3)C2(C)C)ccc1C#N [free base Pattern 5]

HPLC purity [3, 6]: 98.37 % relative area
XRPD after stability storage [3, 6]: No change
HPLC purity ([3]; 7 days at 80° C. (closed vial)): 98.33 % relative area
XRPD after stability storage ([3]; 7 days at 80° C. (closed vial)): No change
HPLC purity [3, 7]: 98.27 % relative area
XRPD after stability storage [3, 7]: No change
Reported Purity ([3]; after 7 days at 40° C./75% RH): 98.37 Area %
Total impurities ([3]; after 7 days at 40° C./75% RH): 1.63 Area %
Reported Purity ([3]; after 7 days at 80° C.): 98.33 Area %
Total impurities ([3]; after 7 days at 80° C.): 1.67 Area %
Reported Purity ([3]; after 7 days at ambient): 98.27 Area %
Total impurities ([3]; after 7 days at ambient): 1.73 Area %
Reported Purity [3, 8]: 98.39 Area %
Total impurities [3, 8]: 1.61 Area %
purity retained after stability storage (HPLC) ([3]; after 7 days at 40° C./75% RH (open vial), 80° C. (closed vial), ambient light (closed vial)): > 98 % relative area
HPLC purity ([3]; before stability testing (condition N/A)): 98.39 % relative area
SMILES: COc1cc(O[C@H]2C(C)(C)[C@H](NC(=O)c3ccc(N4CCC(CN5CCN(c6ccc(C(=O)N[C@H]7CCC(=O)NC7=O)c(F)c6)CC5)CC4)cc3)C2(C)C)ccc1C#N [free base Pattern 2]

0 Hr Solubility [4, 9]: 5900 ng/mL
4 Hr Solubility [4, 9]: 29100 ng/mL
24 Hr Solubility [4, 9]: 30600 ng/mL
0 Hr Solubility [4, 10]: <250 ng/mL
4 Hr Solubility [4, 10]: <250 ng/mL
24 Hr Solubility [4, 10]: <250 ng/mL
0 Hr Solubility [4, 11]: <250 ng/mL
4 Hr Solubility [4, 11]: <250 ng/mL
24 Hr Solubility ([4]; Buffer pH 4.0, LOQ 0.00025 mg/mL, listed as Compound A Phosphate): <250 ng/mL
thermodynamic solubility ([4]; pH 1.2, after 24 hours, as concentration of Compound A free base): 0.0306 mg/mL
assessment of salt form in the primary salt screen [5]: stable hydrates
SMILES: COc1cc(O[C@H]2C(C)(C)[C@H](NC(=O)c3ccc(N4CCC(CN5CCN(c6ccc(C(=O)N[C@H]7CCC(=O)NC7=O)c(F)c6)CC5)CC4)cc3)C2(C)C)ccc1C#N [phosphate Pattern 1]

XRPD results, primary co-crystal screen post storage at 40° C./75% RH ([2]; DCM:Methanol (50:50 % v/v)): 1
XRPD results, primary co-crystal screen post temperature cycling ([2]; DCM:Methanol (50:50 % v/v)): 1
XRPD results, primary co-crystal screen post storage at 40° C./75% RH ([2]; THF): 1
XRPD results, primary co-crystal screen post temperature cycling ([2]; THF): 1
SMILES: COC(=O)c1ccc(O)cc1 [Methylparaben]

Second part, the compound before the results:

SMILES: N[C@@H](Cc1c[nH]c2ccccc12)C(=O)O [L-Tryptophan]
XRPD results, primary co-crystal screen post temperature cycling ([2]; DCM:Methanol (50:50 % v/v)): 2

SMILES: N[C@@H](Cc1ccc(O)cc1)C(=O)O [L-Tyrosine]
XRPD results, primary co-crystal screen post storage at 40° C./75% RH ([2]; 1,4-Dioxane): 4
XRPD results, primary co-crystal screen post temperature cycling ([2]; 1,4-Dioxane): 9
XRPD results, primary co-crystal screen post storage at 40° C./75% RH ([2]; DCM:Methanol (50:50 % v/v)): 2
XRPD results, primary co-crystal screen post temperature cycling ([2]; DCM:Methanol (50:50 % v/v)): 2

SMILES: N[C@@H](Cc1ccccc1)C(=O)O [L-Phenylalanine]
XRPD results, primary co-crystal screen post storage at 40° C./75% RH ([2]; 1,4-Dioxane): 4
XRPD results, primary co-crystal screen post temperature cycling ([2]; 1,4-Dioxane): 9
